Data on eleven compounds can be found in patent US20260150841A1, “PYRIDINE COMPOUNDS FOR COMBATTING DIHYDROOROTATE-DEHYDROGENASE INHIBITOR-RESISTANT PHYTOPATHOGENIC FUNGI” (priority 2022, published 2026).

Values after ≈ are worked out from the molar mass of the structure shown.

Common to all, as to type: cell-based
Assay [1] has as its system Sclerotinia sclerotiorum (sensitive, wild-type). The experiment in a line: Activity against Sclerotinia sclerotiorum in tissue culture plate assay with mycelial plugs, wild type. The conditions noted are these: 168 h, % growth after 7 days at 18° C., read-out: Absolute IC50, wild type. The method, then:
Fungal strains used: • a) Sclerotinia sclerotiorum (sensitive, wild-type) • b) Mutants of Sclerotinia sclerotiorum
Pure cultures are grown on DOB-agar medium, (3.4 g/l YNB (Becton Dickinson), 10 g/l Ammoniumsulfat, 40 g/l Glucose) for 5-7 days at 18° C. Mycelial plugs (6 mm diame-ter) taken from the margin of the colonies are used as inoculum for the sensitivity test. 500 μl fungicide-amended DOB medium (3.4 g/l YNB (Becton Dickinson), 10 g/l Ammoniumsulfat, 40 g/l Glucose, adjusted to pH 7) are added to each well of 24-well tissue culture plates. Each well is then inoculated with a mycelial plug, with the myce-lium surface up. Two replicate wells are used for each isolate and fungicide concentration. Growth is assed after 7 days incubation at 18° C. in the dark by estimating % growth in the well. IC50-values (concentration of test compound resulting in 50% inhibition of fungal growth) were calculated from the resulting dose-response for each compound and strain.

Assay [2] has as its system Botrytis cinerea mutant H108P. Put plainly: Activity against Botrytis cinerea in the microtiter test, mutant H108P. The conditions noted are these: Botrytis cinerea, MUTANTH108P, 168 h, read-out: Absolute IC50, H108P, Botrytis cinerea mutant H108P; turbidity at 620 nm after 7 days. From the text:
(§1) The active substances were formulated separately as a stock solution in dimethyl sulfoxide (DMSO) at a concentration of 10 000 ppm.
(§2) Spontaneous mutants were selected by plating out B. cinerea spores (in the range of 10^7-10^8) on DOB agar plates (3.4 g/l YNB (Becton Dickinson), 10 g/l Ammoniumsulfat, 40 g/l Glucose, 20 g/l Agar), amended with different lethal concentrations of active ingredient. After 7-14 days growing colonies were transferred to DOB agar plates, amended with the same lethal concentrations of active ingredient and then further propagated on Oatmeal agar medium (50 g/l Oatmeal agar (Sigma), 15 g/l Agar (Difco) for sensitivity testing.
(§3) Fungal strains used: • a) Botrytis cinerea (sensitive, wild-type) • b) Various mutants of Botrytis cinerea
(§4) The spores of Botrytis cinerea were harvested with a cotton swab from an Oatmeal agar plate (50 g/l Oatmealagar (Sigma, Art.O-3506), 15 g/l agar, (Difco) and this is dipped in 3 ml of double concentrated DOB-medium (3.4 g/l YNB (Becton Dickinson), 10 g/l Ammoniumsulfat, 40 g/l Glucose, adjusted to pH 7) and the spore suspension is adjusted to a spore density of 3.2×10^4 spores/ml. The compound solutions were diluted from stock solution in (dimethylsulfoxide) DMSO in several steps with sterile deionized water before use. High test concentrations were 50 mg/L (ppm) or 31 mg/L (ppm). Compound solutions were transferred into empty microplates and filled up with an equal amount of spore suspension.
(§5) The antifungal activity was determined by measuring the turbidity of a culture in 96-well microplates in the presence of test compounds after 7 days incubation at 620 nm. A blank value for each concentration (growth media+compound, without spores) are subtracted from the spore suspension. The relative antifungal activity was calculated by comparing the effect of the test compounds with the effect of a DMSO control The results are shown in Table IV (for compounds of general formula I.A), VI (for compounds of general formula I.B), and VIII (for compounds of general formula I.C).
(§6) A compound showing an IC50 (MUT) above the IC50 (WT) and showing an IC50 (MUT) to IC50 (WT) ratio being in a range above 100 is considered unsuitable (“I”) as DHODH inhibitor.
(§7) The absolute IC50-values (concentration of test compound resulting in 50% inhibition of fungal growth) were calculated from the resulting dose-response for each compound and strain.

Assay [3] relates to Botrytis cinerea mutant V195F. The experiment in a line: Activity against Botrytis cinerea in the microtiter test, mutant V195F. To be noted: Botrytis cinerea, MUTANTV195F, 168 h, read-out: Absolute IC50, V195F, Botrytis cinerea mutant V195F; turbidity at 620 nm after 7 days.
Source text: as §1, §2, §3, §4, §5, §6, §7

Assay [4] has as its system Botrytis cinerea mutant G111E. Put plainly: Activity against Botrytis cinerea in the microtiter test, mutant G111E. To be noted: Botrytis cinerea, MUTANTG111E, 168 h, read-out: Absolute IC50, G111E, Botrytis cinerea mutant G111E; turbidity at 620 nm after 7 days.
Source text: as §1, §2, §3, §4, §5, §6, §7

The subject of assay [5] is Botrytis cinerea mutant G111V. The experiment in a line: Activity against Botrytis cinerea in the microtiter test, mutant G111V. To be noted: Botrytis cinerea, MUTANTG111V, 168 h, read-out: Absolute IC50, G111V, Botrytis cinerea mutant G111V; turbidity at 620 nm after 7 days.
Source text: as §1, §2, §3, §4, §5, §6, §7

The test system of assay [6] is Botrytis cinerea (sensitive, wild-type). Put plainly: Activity against Botrytis cinerea in the microtiter test, wild type. The conditions noted are these: 168 h, turbidity at 620 nm after 7 days, read-out: Absolute IC50, wild type. The method, then: as §1, §3, §4, §5, §7
Assay [7] relates to Botrytis cinerea mutant Y208H. The experiment in a line: Activity against Botrytis cinerea in the microtiter test, mutant Y208H. To be noted: Botrytis cinerea, MUTANTY208H, 168 h, read-out: Absolute IC50, Y208H, Botrytis cinerea mutant Y208H; turbidity at 620 nm after 7 days.
Source text: as §1, §2, §3, §4, §5, §6, §7

Take `CN1c2c(F)cccc2C(c2cnc3c(F)cccc3c2)=NC1(C)C`: the IC50 in assay [1] worked out at 0.03 µg/mL (≈ 0.0889 µM).

With `Cc1cc(C2=NC3(CCC(C)(C)C3)Oc3ccccc32)cnc1C` (stereo not shown) [Ex 4], the IC50 in assay [1] came to 8.45 µg/mL (≈ 26.4 µM).

On to `Cc1cc(C2=NC(C)(C)Oc3ccccc32)cnc1C` [Ex 6], for which, in assay [1], the IC50 worked out at 0.08 µg/mL (≈ 0.3 µM).

Take `CCC1(CC)N=C(c2cnc(C)c(C)c2)c2ccccc2O1` [Ex 7]: the IC50 in assay [1] worked out at 0.23 µg/mL (≈ 0.781 µM).

As for `Cc1cc(C2=NC(C)(C(C)(C)C)Oc3ccccc32)cnc1C(F)F` (stereo not shown) [Ex-3], the IC50 in assay [1] came out at 0.893 µg/mL (≈ 2.59 µM); in assay [2], 2.54 µg/mL (≈ 7.38 µM); in assay [3], 0.75 µg/mL (≈ 2.18 µM); in assay [4] it was 2.81 µg/mL (≈ 8.16 µM); in assay [5], 3.17 µg/mL (≈ 9.2 µM); in assay [6] it was 0.19 µg/mL (≈ 0.552 µM).

Take `COc1ccc2c(c1)OC(C)(C)N=C2c1cnc(C(F)F)c(C)c1` [Ex-35]: the IC50 in assay [7] was found to be 2.02 µg/mL (≈ 6.08 µM); in assay [1] it was 0.468 µg/mL (≈ 1.41 µM); in assay [2] it was 0.29 µg/mL (≈ 0.873 µM); in assay [3], 0.05 µg/mL (≈ 0.15 µM); in assay [4], 2.7 µg/mL (≈ 8.12 µM); in assay [5] it was 0.72 µg/mL (≈ 2.17 µM). In addition, in assay [6], the IC50 is 0.02 µg/mL (≈ 0.0602 µM).

Regarding `CC(C)(C)C1(C)N=C(c2cnc3c(F)cccc3c2)c2ccccc2O1` (stereo not shown) [drawing 166], the IC50 in assay [1] is 0.137 µg/mL (≈ 0.393 µM).

As for `CC1(c2ccccc2)N=C(c2cnc3c(F)cccc3c2)c2cccc(F)c2O1` (stereo not shown) [drawing 168], the IC50 in assay [1] stood at 0.154 µg/mL (≈ 0.399 µM).

As to `COc1ccc2c(c1)OC(C)(C)N=C2c1cnc2c(F)cccc2c1` [drawing 170], in assay [1], the IC50 is 0.06 µg/mL (≈ 0.178 µM).

As to `CCN1c2c(F)cccc2C(c2cnc3c(F)cccc3c2)=NC1(C)C` [drawing 175], the IC50 in assay [1] was 0.03 µg/mL (≈ 0.0854 µM).

On to `CC1(C)N=C(c2cnc3c(F)cccc3c2)c2ccccc2OC1(C)C` [drawing 178], for which the IC50 in assay [1] was 2 µg/mL (≈ 5.73 µM).
